Results from the RepoRT retention time repository (doi:10.1021/acs.analchem.2c02893).

Assay: RP, Thermo Scientific Acclaim RSLC 120 C18, 100 × 2.1 mm, 2.2 µm, 30 °C, 0.2 mL/min, estimated dead time 1.1 min; A: 90% water + 10% methanol + 0.01% formic acid + 5 mM ammonium formate, pH 3.61; B: methanol + 0.01% formic acid + 5 mM ammonium formate, pH 3.61; gradient (min/%B) 0/1 1/1 2/39 13/99.9 15/99.9 15.1/1 20.1/1
Conditions: stereoisomer not certain

| SMILES | LC retention time [min] |
| --- | --- |
| CC1(C)C(C(=O)c2cn(CCCCCF)c3ccccc23)C1(C)C [XLR-11] | 11.9 |
| CCOC(=O)C(CCc1ccccc1)NC1CCCN2CCCC(C(=O)O)N2C1=O (stereo unspecified) [Cilazapril] | 7.94 |
| COC(=O)c1ccc(C)cc1C1=NC(C)(C(C)C)C(=O)N1 (stereo unspecified) [Imazamethabenz-methyl] | 7.16 |
| CCC(=O)OC1(C(=O)CCl)C(C)CC2C3CCC4=CC(=O)C=CC4(C)C3(F)C(O)CC21C (stereo unspecified) [Clobetasol propionate] | 10.6 |
| O=C(NC(=O)c1c(F)cccc1F)Nc1ccc(Cl)cc1 [Diflubenzuron] | 10.6 |
| C=CCN(CC=C)CCc1c[nH]c2ccc(OC)cc12 [MeO-DALT (5-)] | 4.89 |
| CCCCn1c(O)c(C(=O)c2cccc3ccccc23)c2ccccc21 [JWH-073-M-2-OH-Ind] | 13.5 |
| CN1CCN(C)C1=O [Imidazolidinon- 1-3-Dimethyl-2-] | 3.53 |
| CCS(=O)(=O)Cc1ccccc1OC(=O)NC [Ethiofencarb-sulfone] | 4.63 |
| OC(CCN1CCCCC1)(c1ccccc1)C1CC2C=CC1C2 (stereo unspecified) [Biperidene] | 7.63 |
| CCCCCCCCCCCCN(C)C [N,N-Dimethyldodecylamine] | 10.4 |
| CCOC(=O)C(Cl)Cc1cc(-n2nc(C)n(C(F)F)c2=O)c(F)cc1Cl (stereo unspecified) [Carfentrazone-ethyl] | 10.7 |
| COc1ccc2c(c1OC)C(=O)OC2C1c2c(cc3c(c2OC)OCO3)CCN1C (stereo unspecified) [Noscapine] | 6.96 |
| CC(C)c1ccc(NC(N)=O)cc1 [Isoproturon-didemethyl (1-(4-Isoprophenyl)urea)] | 7.76 |
| CCOP(=S)(OCC)ON=C(C#N)c1ccccc1 [Phoxim] | 11.2 |
| COC=C(C(=O)OC)c1ccccc1Oc1cc(Oc2ccccc2C#N)ncn1 [Azoxystrobin] | 9.02 |
| CC1=NNC(=O)N(N=Cc2cccnc2)C1 [Pymetrozine] | 4.01 |
| Cc1ccsc1C=CC1=NCCCN1C [Morantel] | 4.36 |
| CC(C)NCC(O)COc1cccc2[nH]c3ccccc3c12 (stereo unspecified) [Carazolol] | 5.49 |
| CCNc1nc(Cl)nc(NC(C)(C)C#N)n1 [Cyanazine] | 6.55 |
| Cc1nn(C)c(OCC(=O)c2ccccc2)c1C(=O)c1ccc(Cl)cc1Cl [Pyrazoxyfen] | 10.9 |

| SMILES | LC retention time [min] |
| --- | --- |
| COc1cc(NS(=O)(=O)c2ccc(N)cc2)nc(OC)n1 [Sulfadimethoxine] | 5.6 |
| O=C(NC1CCN(CCc2c[nH]c3ccccc23)CC1)c1ccccc1 [Indoramin] | 5.37 |
| CC(N)Cc1c[nH]c2ccccc12 (stereo not drawn) [AMT (Alpha-Methyltryptamine)] | 4.44 |
| COC(=O)C1C(OC(=O)c2ccccc2)CC2CCC1N2C (stereo unspecified) [Cocaine] | 4.84 |
| CC1(C)C(C=C(Cl)C(F)(F)F)C1C(=O)OC(C#N)c1cccc(Oc2ccccc2)c1 (stereo unspecified) [Cyhalothrin (lambda-)] | 13 |
| CN1CCC(=C2c3ccccc3C=Cc3ccccc32)CC1 [Cyproheptadine] | 7.89 |
| N#Cc1nn(-c2c(Cl)cc(C(F)(F)F)cc2Cl)c(N)c1SC(F)(F)F [Fipronil-sulfide] | 10.8 |
| Cc1cc(Cl)ccc1OC(C)C(=O)O (stereo unspecified) [Mecoprop] | 8.27 |
| CC(C)OP(=O)(OC(C)C)SCc1ccccc1 [Iprobenfos] | 10.6 |
| CN(CCOc1ccc(CC2SC(=O)NC2=O)cc1)c1ccccn1 (stereo unspecified) [Rosiglitazone] | 6.98 |
| CC(C)(c1ccc(OCC(O)CCl)cc1)c1ccc(OCC2CO2)cc1 (stereo unspecified) [Bisphenol<U+00A0>A (3-chloro-2-hydroxypropyl) glycidyl ether] | 11.1 |
| CCCCC(=O)OC1(C(=O)CO)C(C)CC2C3CCC4=CC(=O)C=CC4(C)C3(F)C(O)CC21C (stereo unspecified) [Betamethasone-17-valerate] | 11 |
| CCOP(=S)(OCC)Oc1nc(Cl)n(C(C)C)n1 [Isazophos] | 9.87 |
| CCCCCn1nc(C(=O)Oc2cccc3ccccc23)c2ccccc21 [SDB-005] | 13.1 |
| Cc1ccc(NC(=O)N(C)C)cc1Cl [Chlorotoluron] | 7.98 |
| CCCCCn1cc(C(=O)Nc2ccccc2)c2ccccc21 [SDB-006 N-phenyl] | 11.3 |
| COC(=O)c1sccc1S(=O)(=O)NC(=O)Nc1nc(C)nc(OC)n1 [Thifensulfuron-methyl] | 6.24 |
| CC(O)CCn1cc(C(=O)c2cccc3ccccc23)c2ccccc21 (stereo unspecified) [JWH-073-M-3-OH-Butyl] | 9.91 |
| COc1ccc(CC(C)NCC(O)c2ccc(O)c(NC=O)c2)cc1 (stereo unspecified) [Formoterol] | 4.79 |
| COC(=O)C1C(O)CC2CCC1N2C (stereo unspecified) [EME (Ecgonine methyl ester)] | 1.38 |
| C=CCNc1nc(NCC=C)nc(N2CCN(C(c3ccc(F)cc3)c3ccc(F)cc3)CC2)n1 [Almitrine] | 13.4 |

| SMILES | LC retention time [min] |
| --- | --- |
| CC(=O)OC1(C(C)=O)CCC2C3C=C(C)C4=CC(=O)CCC4(C)C3CCC21C (stereo unspecified) [Megestrol-17-acetate] | 10.9 |
| Cc1ccc(-c2c(Cl)nc(C#N)n2S(=O)(=O)N(C)C)cc1 [Cyazofamid] | 10.3 |
| CC(N)C(O)c1ccccc1 (stereo unspecified) [Cathine / Ephedrine-Nor (Cathin. Phenylpropanolamine)] | 3.68 |
| O=C(NC12CC3CC(CC(C3)C1)C2)c1cn(CCCCCF)c2ccccc12 [STS-135] | 12.2 |
| COc1cc(OC)nc(Oc2cccc(Oc3nc(OC)cc(OC)n3)c2C(=O)O)n1 [Bispyribac] | 8.86 |
| Fc1ccc(Oc2ccnc3cc(Cl)cc(Cl)c23)cc1 [Quinoxyphen] | 12.8 |
| CCC(C)C(=O)OC1CC(C)C=C2C=CC(C)C(CCC3CC(O)CC(=O)O3)C21 (stereo unspecified) [Lovastatin] | 12 |
| CC(=O)Nc1nnc(S(N)(=O)=O)s1 [Acetazolamide] | 3.43 |
| CCCc1nn(C)c2c(=S)nc(-c3cc(S(=O)(=O)N4CCN(C)CC4)ccc3OCC)[nH]c12 [Sildenafil-Thio] | 10.6 |
| CCCCn1cc(C(=O)c2cccc3ccccc23)c2cccc(O)c21 [JWH-073-M-7-OH-Ind] | 11.2 |
| COCCOCCOC [Diglyme] | 3.9 |
| Cc1ccccc1CC(C)N (stereo unspecified) [Amphetamine-2-methyl (ortetamine)] | 5.17 |
| COc1ccc2c3c1OC1C(=O)CCC4C(C2)N(C)CCC314 (stereo unspecified) [Hydrocodone] | 3.69 |
| Cc1cnc2c(C(=O)O)c(Cl)ccc2c1 [Quinmerac] | 4.75 |
| CN1CCC23c4c5ccc(O)c4OC2C(=O)CCC3C1C5 (stereo unspecified) [Hydromorphone] | 2.91 |
| Cc1nc([N+](=O)[O-])cn1CCO [Metronidazole] | 3.58 |
| CN=C(NC)NCc1ccccc1 [Bethanidine] | 3.97 |
| CCC(=O)OCC(=O)C1(OC(=O)CC)C(C)CC2C3CCC4=CC(=O)C=CC4(C)C3(F)C(O)CC21C (stereo unspecified) [Betamethasone dipropionate] | 11.3 |
| COC(=O)C(c1ccccc1Cl)N1CCc2sccc2C1 (stereo unspecified) [Clopidogrel] | 11.8 |
| CC1C=CC=CCCC=CC=CC=CC=CC(OC2OC(C)C(O)C(N)C2O)CC2OC(O)(CC(O)C(O)CCC(O)CC(O)CC(O)CC(=O)OC(C)C(C)C1O)CC(O)C2C(=O)O (stereo unspecified) [Nystatin] | 10.3 |
| CCOP(=S)(NC(C)C)Oc1ccccc1C(=O)OC(C)C (stereo unspecified) [Isofenphos] | 11.2 |

| SMILES | LC retention time [min] |
| --- | --- |
| CCCOc1ccc(S(=O)(=O)N2CCN(CCO)CC2)cc1-c1nc2c(CCC)cn(CC)c2c(=O)[nH]1 [Mirodenafil] | 9.49 |
| CNC(=C[N+](=O)[O-])NCCSCc1ccc(CN(C)C)o1 [Ranitidine] | 3.14 |
| CNC(C)C(=O)c1ccc2c(c1)OCO2 (stereo unspecified) [Methylone (MDMC)] | 3.81 |
| CCCCc1nc(Cl)c(CO)n1Cc1ccc(-c2ccccc2-c2nn[nH]n2)cc1 [Losartan] | 8.19 |
| O=C(Nc1ccc(F)cc1)c1cccc(Oc2cccc(C(F)(F)F)c2)n1 [Picolinafen] | 12.3 |
| CC12CC(O)C3C(CCC4=CC(=O)CCC43C)C1CCC2=O (stereo not drawn) [4-Androsten-11beta-ol-3,17-dione] | 8.23 |
| CC(C)CN(CC(O)C(Cc1ccccc1)NC(=O)OC1COC2OCCC12)S(=O)(=O)c1ccc(N)cc1 (stereo unspecified) [Darunavir] | 8.21 |
| C=CC1(C)OC(=O)N(c2cc(Cl)cc(Cl)c2)C1=O (stereo unspecified) [Vinclozolin] | 10.6 |
| NS(=O)(=O)c1cc2c(cc1C(F)(F)F)NC(Cc1ccccc1)NS2(=O)=O (stereo unspecified) [Bendroflumethiazide] | 6.82 |
| CC(C)(C)NCC(O)c1ccc(O)c(CO)c1 (stereo unspecified) [Albuterol / Salbutamol] | 3.23 |
| CCOC(=O)C(C)Oc1ccc(Oc2cnc3cc(Cl)ccc3n2)cc1 (stereo unspecified) [Quizalofop-ethyl] | 12.1 |
| CC12C=CC(=O)C=C1CCC1C2C(O)CC2(C)C1CCC2(O)C(=O)CO (stereo unspecified) [Prednisolone] | 7.84 |
| S=C1N=CN=C2N=CN=C12 [Mercaptopurine (6-)] | 2.61 |
| CCC(CN(C)C)(CN(C)C)OC(=O)c1ccccc1 [Alypin] | 6.07 |
| CC(CCc1ccc(O)cc1)NCC(O)c1ccc(O)cc1 (stereo unspecified) [Ractopamine] | 4.39 |
| CN(C)CCN1C(=O)c2ccccc2N(C)c2ccccc21 [Dibenzepin] | 5.49 |
| COc1ccc(CC2c3cc(OC)c(OC)cc3CCN2C)cc1OC (stereo unspecified) [Laudanosine] | 4.71 |
| CNC(C)C(=O)c1ccc(Br)cc1 (stereo unspecified) [Brefedrone] | 5.05 |
